In patent publication US20150320692A1 (UNIWERSYTET LÓDZKI, priority 2012, published 2015):

Tested on: CLL cells (leukemic lymphocytes)
Assay: Assessment of mitochondrial membrane potential (CMXRos, flow cytometry)
Type: cell-based, human
Conditions: for mean percentage of cells with lower mitochondrial potential (ΔΨm^low/Gly-A^−): 1.6 μM
Excerpt: Mitochondrial membrane potential is an early indicator of apoptosis. CMXRos, i.e. Chloromethyl-X-rosamine (the reagent's name by Mito Tracker Red CMXRos, Molecular Probes, USA), and a monoclonal antibody to glycophorin A conjugated with FITC (the reagent's name of Anti-Glycophorin A FITC by Dako, Denmark) were used for its assessment. CMXRos is a lipophilic cationic dye that accumulates in the mitochondrial matrix of viable cells when there is an electronegative load on the inner surface of the mitochondrial membrane. This asymmetric location of protons along the inner mitochondrial membrane leads to a high mitochondrial membrane potential (ΔΨm) in living cells. A decreased mitochondrial potential ΔΨm is one of the first symptoms of apoptosis during the process of induction, which results in lowering of the mitochondrial uptake of CMXRos.
The stock CMXRos solution was prepared by dilution of the substance supplied by the manufacturer in 94 μl DMSO (dimethylsulphoxide), and stored at […]. Then working solution was prepared also using DMSO (1:10) and stored at 4° C. Mononuclear cells, i.e. leukemic lymphocytes, at 1×10^6 MNCs/ml concentration, were incubated with CMXRos (2.5 μl working solution in 500 μl RPMI 1640 medium) at 37° C. for 30 minutes. […] The samples were next measured using flow cytometry. The percentage of cells not bound to anti-glycophorin A-FITC (ΔΨm^low/Gly-A^− cells), with low mitochondrial potential, was calculated.
All fluorescence measurements were performed by a flow cytometer FACSCalibur (Becton Dickinson, USA) equipped with an argon laser 488 nm and computer program CellQuestPro (Becton Dickinson, USA). Each time 10 000 cells were evaluated. The fluorescence was measured using standard emission filters: green—FL1 (wavelength λ=530±20 nm) and red—FL3 (>600 nm).

| Compound | mean percentage of cells with lower mitochondrial potential (ΔΨm^low/Gly-A^−) (24 h) [%] | mean percentage of cells with lower mitochondrial potential (ΔΨm^low/Gly-A^−) (48 h) [%] | apoptosis-inducing action (mitochondrial potential) compared with control (10 μg/ml, 24-hour cultures) |
| --- | --- | --- | --- |
| Nc1nc(F)nc2c1ncn2[C@@H]1O[C@H](CO)[C@@H](O)[C@@H]1O [FA, fludarabine] | 52.05 | 74.49 | – |
| rituximab | – | – | apoptosis-inducing action in order of spontaneous apoptosis |
